# How the values were obtained:
# [1] = molecular target: T1, GST-tagged recombinant human p38α (Homo sapiens, UniProt Q16539); test: p38α LanthaScreen Eu Kinase Binding Assay (Example G); conditions: TrkA versus p38α binding
# T1 construct: GST-tagged cytoplasmic domain from Invitrogen, Catalog No. PV3305; purchased Invitrogen PV3305
# Method: The p38α binding activity of Compound 1 was determined in a p38α LanthaScreen™ Eu Kinase Binding Assay. […] Three fold serial dilutions of Compound 1 in DMSO were added to a final percentage of 2% DMSO. After 60-minute incubation at 22° C., the reaction was measured using the EnVision multimode plate reader (PerkinElmer) via TR-FRET dual wavelength detection at […]. The percent of control was calculated using a ratiometric emission factor. The IC50 value was determined by fitting a four parameter model to the percent of control data.
# TrkA = test: Estimated inhibition of TrkA after oral dose of 10 mg/kg in rats (FIGS. 3 and 4); conditions: oral dose of 10 mg/kg in rats; relative to Compound 2 and Compound 3; calculated from plasma concentration and IC50
# Method: FIGS. 3 and 4 illustrate the estimated inhibition of TrkA for Compound 1 after an oral dose of 10 mg/kg in rats of relative to Compound 2, and for Compound 1 relative to Compound 3, respectively. The curves in FIGS. 3 and 4 were calculated using the following equation: […]
# where Imin and Imax are the minimum and maximum possible inhibition of the target, respectively, IC50 is the concentration at which the target is inhibited by 50%, C is the concentration of the inhibitor, and n is the Hill slope.
# EphA8 = molecular target: T2, EphA8 (Homo sapiens, UniProt P29322); test: KinaseProfiler kinase profiling; format: biochemical; conditions: 10 μM, ATP near Km
# T2 construct: purchased Millipore, Inc. (KinaseProfiler service)
# Method: (§1) Compound 1 was tested for off-target kinase activity at a concentration of 10 μM by Millipore, Inc. in their KinaseProfiler™ service against all the kinases available in their full kinase panel. Compound 1 was run in duplicate at a concentration of ATP near the Km for each individual kinase according to Millipore's specifications. Data are reported as percent of control (POC) and are the average of the two replicates.
# Pim-2 = molecular target: T3, Pim-2 (Homo sapiens, UniProt Q9P1W9); test: KinaseProfiler kinase profiling; format: biochemical; conditions: 10 μM, ATP near Km
# T3 construct: purchased Millipore, Inc. (KinaseProfiler service)
# Method: as §1
# CDK5/p35 = molecular target: T4, CDK5/p35 (Homo sapiens, UniProt Q00535); test: KinaseProfiler kinase profiling; format: biochemical; conditions: 10 μM, ATP near Km
# T4 construct: purchased Millipore, Inc. (KinaseProfiler service)
# T4 sequence (Q00535 whole entry): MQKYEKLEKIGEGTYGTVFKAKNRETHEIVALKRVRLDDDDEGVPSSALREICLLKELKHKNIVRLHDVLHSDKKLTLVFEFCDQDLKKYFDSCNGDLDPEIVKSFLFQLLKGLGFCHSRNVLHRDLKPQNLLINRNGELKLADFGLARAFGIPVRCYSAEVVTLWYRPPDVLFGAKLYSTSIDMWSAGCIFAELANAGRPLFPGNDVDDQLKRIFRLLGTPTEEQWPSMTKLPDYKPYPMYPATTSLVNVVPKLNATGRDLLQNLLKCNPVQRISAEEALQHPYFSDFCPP
# T4 sequence (Q15078 whole entry partner): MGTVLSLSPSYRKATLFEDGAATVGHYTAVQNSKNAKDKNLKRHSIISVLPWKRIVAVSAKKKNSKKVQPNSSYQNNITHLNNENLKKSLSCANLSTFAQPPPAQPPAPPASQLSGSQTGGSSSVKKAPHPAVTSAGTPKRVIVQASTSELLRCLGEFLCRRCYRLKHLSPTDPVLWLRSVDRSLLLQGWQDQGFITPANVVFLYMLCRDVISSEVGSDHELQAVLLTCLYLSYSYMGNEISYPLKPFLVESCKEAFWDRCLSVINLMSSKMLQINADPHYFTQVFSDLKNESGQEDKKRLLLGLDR
# Method: as §1
# MST3 = molecular target: T5, MST3 (Homo sapiens, UniProt Q9Y6E0); test: KinaseProfiler kinase profiling; format: biochemical; conditions: 10 μM, ATP near Km
# T5 construct: purchased Millipore, Inc. (KinaseProfiler service)
# Method: as §1
# IKKbeta = molecular target: T6, IKKbeta (Homo sapiens, UniProt O14920); test: KinaseProfiler kinase profiling; format: biochemical; conditions: 10 μM, ATP near Km
# T6 construct: purchased Millipore, Inc. (KinaseProfiler service)
# Method: as §1
# CDK7/cyclinH/MAT1 = molecular target: T7, CDK7/cyclinH/MAT1 (Homo sapiens, UniProt P50613); test: KinaseProfiler kinase profiling; format: biochemical; conditions: 10 μM, ATP near Km
# T7 construct: purchased Millipore, Inc. (KinaseProfiler service)
# Method: as §1
# Fer = molecular target: T8, Fer (Homo sapiens, UniProt P16591); test: KinaseProfiler kinase profiling; format: biochemical; conditions: 10 μM, ATP near Km
# T8 construct: purchased Millipore, Inc. (KinaseProfiler service)
# Method: as §1
# Plk1 = molecular target: T9, Plk1 (Homo sapiens, UniProt P53350); test: KinaseProfiler kinase profiling; format: biochemical; conditions: 10 μM, ATP near Km
# T9 construct: purchased Millipore, Inc. (KinaseProfiler service)
# T9 sequence (P53350 whole entry): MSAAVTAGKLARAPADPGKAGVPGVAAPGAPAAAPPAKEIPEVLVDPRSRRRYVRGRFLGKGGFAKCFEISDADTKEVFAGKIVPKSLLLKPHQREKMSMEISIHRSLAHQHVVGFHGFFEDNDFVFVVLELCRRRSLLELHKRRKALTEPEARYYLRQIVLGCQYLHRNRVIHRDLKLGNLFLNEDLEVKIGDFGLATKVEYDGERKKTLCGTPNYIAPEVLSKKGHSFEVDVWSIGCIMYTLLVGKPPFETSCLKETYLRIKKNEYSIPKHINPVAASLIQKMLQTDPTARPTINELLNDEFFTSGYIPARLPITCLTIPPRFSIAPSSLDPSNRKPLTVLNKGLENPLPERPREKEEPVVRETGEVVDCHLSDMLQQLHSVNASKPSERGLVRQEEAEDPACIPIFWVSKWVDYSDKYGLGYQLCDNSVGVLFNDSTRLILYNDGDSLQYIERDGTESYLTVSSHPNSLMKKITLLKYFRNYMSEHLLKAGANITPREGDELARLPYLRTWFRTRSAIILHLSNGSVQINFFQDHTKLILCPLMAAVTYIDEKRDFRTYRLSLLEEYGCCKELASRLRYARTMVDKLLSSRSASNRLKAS
# Method: as §1
# TEC Activated = molecular target: T10, TEC Activated (Homo sapiens, UniProt P42680); test: KinaseProfiler kinase profiling; format: biochemical; conditions: 10 μM, ATP near Km
# T10 construct: purchased Millipore, Inc. (KinaseProfiler service)
# T10 sequence (P42680 whole entry): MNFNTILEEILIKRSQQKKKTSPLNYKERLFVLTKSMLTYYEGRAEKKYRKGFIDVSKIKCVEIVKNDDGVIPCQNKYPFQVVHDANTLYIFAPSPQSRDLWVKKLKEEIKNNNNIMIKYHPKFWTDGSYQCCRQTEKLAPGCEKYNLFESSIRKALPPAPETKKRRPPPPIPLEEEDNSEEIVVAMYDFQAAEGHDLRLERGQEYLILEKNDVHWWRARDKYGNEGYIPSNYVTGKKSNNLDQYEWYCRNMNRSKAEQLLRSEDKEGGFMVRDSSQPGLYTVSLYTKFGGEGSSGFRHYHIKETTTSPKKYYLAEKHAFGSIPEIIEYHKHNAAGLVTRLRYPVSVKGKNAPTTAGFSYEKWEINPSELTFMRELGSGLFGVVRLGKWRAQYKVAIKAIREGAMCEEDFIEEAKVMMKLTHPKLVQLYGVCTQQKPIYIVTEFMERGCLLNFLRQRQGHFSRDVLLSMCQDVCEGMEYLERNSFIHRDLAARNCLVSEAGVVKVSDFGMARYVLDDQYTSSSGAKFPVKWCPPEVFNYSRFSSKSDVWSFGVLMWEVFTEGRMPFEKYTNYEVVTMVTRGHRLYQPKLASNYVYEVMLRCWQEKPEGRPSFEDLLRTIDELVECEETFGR
# Method: as §1
# Ret = molecular target: T11, Ret (Homo sapiens, UniProt P07949); test: KinaseProfiler kinase profiling; format: biochemical; conditions: 10 μM, ATP near Km
# T11 construct: purchased Millipore, Inc. (KinaseProfiler service)
# Method: as §1
# BLK = molecular target: T12, BLK (Homo sapiens, UniProt P51451); test: KinaseProfiler kinase profiling; format: biochemical; conditions: 10 μM, ATP near Km
# T12 construct: purchased Millipore, Inc. (KinaseProfiler service)
# Method: as §1
# FGFR2 = molecular target: T13, FGFR2 (Homo sapiens, UniProt P21802); test: KinaseProfiler kinase profiling; format: biochemical; conditions: 10 μM, ATP near Km
# T13 construct: purchased Millipore, Inc. (KinaseProfiler service)
# Method: as §1
# PDGFRbeta = molecular target: T14, PDGFRbeta (Homo sapiens, UniProt P09619); test: KinaseProfiler kinase profiling; format: biochemical; conditions: 10 μM, ATP near Km
# T14 construct: purchased Millipore, Inc. (KinaseProfiler service)
# T14 sequence (P09619 33-1106): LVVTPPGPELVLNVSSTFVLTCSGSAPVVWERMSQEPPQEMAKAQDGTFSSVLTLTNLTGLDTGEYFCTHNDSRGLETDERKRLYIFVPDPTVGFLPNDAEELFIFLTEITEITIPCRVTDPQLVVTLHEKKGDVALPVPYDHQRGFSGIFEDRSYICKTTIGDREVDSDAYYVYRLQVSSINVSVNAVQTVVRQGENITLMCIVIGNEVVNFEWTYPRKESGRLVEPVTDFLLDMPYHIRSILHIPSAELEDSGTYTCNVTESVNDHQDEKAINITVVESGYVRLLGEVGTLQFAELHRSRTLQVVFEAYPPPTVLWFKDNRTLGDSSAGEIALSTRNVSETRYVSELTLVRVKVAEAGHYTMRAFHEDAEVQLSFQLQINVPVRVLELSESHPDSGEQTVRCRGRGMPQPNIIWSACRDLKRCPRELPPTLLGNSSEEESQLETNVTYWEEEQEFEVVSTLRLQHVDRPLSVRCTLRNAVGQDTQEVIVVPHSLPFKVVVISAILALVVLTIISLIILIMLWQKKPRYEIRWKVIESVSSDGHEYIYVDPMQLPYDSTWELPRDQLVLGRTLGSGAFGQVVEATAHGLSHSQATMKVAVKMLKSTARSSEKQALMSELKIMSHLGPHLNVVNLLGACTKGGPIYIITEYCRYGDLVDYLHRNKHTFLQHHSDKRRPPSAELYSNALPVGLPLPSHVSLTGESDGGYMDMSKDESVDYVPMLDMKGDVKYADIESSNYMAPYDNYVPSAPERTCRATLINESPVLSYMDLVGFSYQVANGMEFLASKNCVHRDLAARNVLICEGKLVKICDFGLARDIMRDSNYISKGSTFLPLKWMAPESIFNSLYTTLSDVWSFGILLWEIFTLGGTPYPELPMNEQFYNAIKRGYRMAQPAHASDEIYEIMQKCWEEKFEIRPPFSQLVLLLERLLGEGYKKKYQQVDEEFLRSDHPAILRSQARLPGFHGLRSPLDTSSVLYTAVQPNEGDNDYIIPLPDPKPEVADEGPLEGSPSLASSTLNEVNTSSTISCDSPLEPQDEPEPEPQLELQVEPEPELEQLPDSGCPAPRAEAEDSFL
# Method: as §1
# PRK2 = molecular target: T15, PRK2 (Homo sapiens, UniProt Q16513); test: KinaseProfiler kinase profiling; format: biochemical; conditions: 10 μM, ATP near Km
# T15 construct: purchased Millipore, Inc. (KinaseProfiler service)
# T15 sequence (Q16513 whole entry): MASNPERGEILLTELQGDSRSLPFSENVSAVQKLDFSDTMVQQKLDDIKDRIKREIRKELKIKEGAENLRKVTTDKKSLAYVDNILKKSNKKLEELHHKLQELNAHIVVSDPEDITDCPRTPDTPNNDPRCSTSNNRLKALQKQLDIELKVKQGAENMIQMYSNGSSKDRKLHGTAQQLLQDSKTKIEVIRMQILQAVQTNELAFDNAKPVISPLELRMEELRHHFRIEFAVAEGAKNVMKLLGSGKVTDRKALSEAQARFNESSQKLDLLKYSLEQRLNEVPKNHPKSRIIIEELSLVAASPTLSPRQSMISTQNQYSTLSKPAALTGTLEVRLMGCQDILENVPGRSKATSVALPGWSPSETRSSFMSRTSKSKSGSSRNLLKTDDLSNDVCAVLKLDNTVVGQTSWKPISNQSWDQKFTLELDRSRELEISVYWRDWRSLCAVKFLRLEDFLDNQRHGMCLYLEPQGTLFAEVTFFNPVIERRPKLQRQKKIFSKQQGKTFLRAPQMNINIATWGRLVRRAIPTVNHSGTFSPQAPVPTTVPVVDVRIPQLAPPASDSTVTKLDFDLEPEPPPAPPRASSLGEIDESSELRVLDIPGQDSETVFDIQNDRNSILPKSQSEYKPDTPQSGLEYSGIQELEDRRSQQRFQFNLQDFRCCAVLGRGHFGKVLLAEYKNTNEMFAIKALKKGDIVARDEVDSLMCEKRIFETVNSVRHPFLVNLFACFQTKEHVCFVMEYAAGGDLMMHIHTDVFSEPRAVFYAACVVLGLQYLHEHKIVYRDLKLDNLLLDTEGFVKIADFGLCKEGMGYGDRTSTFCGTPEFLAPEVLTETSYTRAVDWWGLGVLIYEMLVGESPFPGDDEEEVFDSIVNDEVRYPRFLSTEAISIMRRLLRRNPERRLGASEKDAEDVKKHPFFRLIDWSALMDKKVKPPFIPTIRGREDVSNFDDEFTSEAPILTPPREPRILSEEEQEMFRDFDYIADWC
# Method: as §1
# Bmx = molecular target: T16, Bmx (Homo sapiens, UniProt P51813); test: KinaseProfiler kinase profiling; format: biochemical; conditions: 10 μM, ATP near Km
# T16 construct: purchased Millipore, Inc. (KinaseProfiler service)
# Method: as §1
# PAK4 = molecular target: T17, PAK4 (Homo sapiens, UniProt O96013); test: KinaseProfiler kinase profiling; format: biochemical; conditions: 10 μM, ATP near Km
# T17 construct: purchased Millipore, Inc. (KinaseProfiler service)
# T17 sequence (O96013 whole entry): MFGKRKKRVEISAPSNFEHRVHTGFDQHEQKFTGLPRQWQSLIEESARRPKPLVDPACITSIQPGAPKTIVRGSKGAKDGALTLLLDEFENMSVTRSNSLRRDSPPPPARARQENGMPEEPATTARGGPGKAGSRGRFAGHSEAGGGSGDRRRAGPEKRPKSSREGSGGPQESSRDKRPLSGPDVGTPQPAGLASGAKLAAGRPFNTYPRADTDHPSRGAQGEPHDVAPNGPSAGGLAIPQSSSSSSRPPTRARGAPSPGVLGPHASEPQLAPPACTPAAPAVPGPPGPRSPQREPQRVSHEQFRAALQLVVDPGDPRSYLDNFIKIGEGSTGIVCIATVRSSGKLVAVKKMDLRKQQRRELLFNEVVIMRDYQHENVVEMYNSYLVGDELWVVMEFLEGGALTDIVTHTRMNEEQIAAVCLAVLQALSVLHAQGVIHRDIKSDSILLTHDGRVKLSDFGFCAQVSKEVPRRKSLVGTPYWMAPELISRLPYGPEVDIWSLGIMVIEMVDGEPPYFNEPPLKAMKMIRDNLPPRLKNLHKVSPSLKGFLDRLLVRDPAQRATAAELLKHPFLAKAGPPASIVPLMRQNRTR
# Method: as §1
# CAMK1d = molecular target: T18, CAMK1d (Homo sapiens, UniProt Q8IU85); test: KinaseProfiler kinase profiling; format: biochemical; conditions: 10 μM, ATP near Km
# T18 construct: purchased Millipore, Inc. (KinaseProfiler service)
# Method: as §1
# CDK9/cyclinT1 = molecular target: T19, CDK9/cyclinT1 (Homo sapiens, UniProt P50750); test: KinaseProfiler kinase profiling; format: biochemical; conditions: 10 μM, ATP near Km
# T19 construct: purchased Millipore, Inc. (KinaseProfiler service)
# Method: as §1
# TAO3 = molecular target: T20, TAO3 (Homo sapiens, UniProt Q9H2K8); test: KinaseProfiler kinase profiling; format: biochemical; conditions: 10 μM, ATP near Km
# T20 construct: purchased Millipore, Inc. (KinaseProfiler service)
# Method: as §1
# TSSK1 = molecular target: T21, TSSK1 (Homo sapiens, UniProt Q9BXA7); test: KinaseProfiler kinase profiling; format: biochemical; conditions: 10 μM, ATP near Km
# T21 construct: purchased Millipore, Inc. (KinaseProfiler service)
# Method: as §1
# ALK4 = molecular target: T22, ALK4 (Homo sapiens, UniProt P36896); test: KinaseProfiler kinase profiling; format: biochemical; conditions: 10 μM, ATP near Km
# T22 construct: purchased Millipore, Inc. (KinaseProfiler service)
# Method: as §1
# p70S6K = molecular target: T23, p70S6K (Homo sapiens, UniProt P23443); test: KinaseProfiler kinase profiling; format: biochemical; conditions: 10 μM, ATP near Km
# T23 construct: purchased Millipore, Inc. (KinaseProfiler service)
# Method: as §1
# WNK3 = molecular target: T24, WNK3 (Homo sapiens, UniProt Q9BYP7); test: KinaseProfiler kinase profiling; format: biochemical; conditions: 10 μM, ATP near Km
# T24 construct: purchased Millipore, Inc. (KinaseProfiler service)
# Method: as §1
# NEK7 = molecular target: T25, NEK7 (Homo sapiens, UniProt Q8TDX7); test: KinaseProfiler kinase profiling; format: biochemical; conditions: 10 μM, ATP near Km
# T25 construct: purchased Millipore, Inc. (KinaseProfiler service)
# Method: as §1
# JNK3 = molecular target: T26, JNK3 (Homo sapiens, UniProt P53779); test: KinaseProfiler kinase profiling; format: biochemical; conditions: 10 μM, ATP near Km
# T26 construct: purchased Millipore, Inc. (KinaseProfiler service)
# Method: as §1
# MAPKAP-K5 = molecular target: T27, MAPKAP-K5 (Homo sapiens, UniProt Q8IW41); test: KinaseProfiler kinase profiling; format: biochemical; conditions: 10 μM, ATP near Km
# T27 construct: purchased Millipore, Inc. (KinaseProfiler service)
# Method: as §1
# CDK6/cyclinD3 = molecular target: T28, CDK6/cyclinD3 (Homo sapiens, UniProt Q00534); test: KinaseProfiler kinase profiling; format: biochemical; conditions: 10 μM, ATP near Km
# T28 construct: purchased Millipore, Inc. (KinaseProfiler service)
# Method: as §1
# CDK5/p25 = molecular target: T29, CDK5/p25 (Homo sapiens, UniProt Q00535); test: KinaseProfiler kinase profiling; format: biochemical; conditions: 10 μM, ATP near Km
# T29 construct: purchased Millipore, Inc. (KinaseProfiler service)
# T29 sequence (Q00535 whole entry): as the sequence (Q00535 whole entry) above
# T29 sequence (Q15078 99-307 partner limits assumed): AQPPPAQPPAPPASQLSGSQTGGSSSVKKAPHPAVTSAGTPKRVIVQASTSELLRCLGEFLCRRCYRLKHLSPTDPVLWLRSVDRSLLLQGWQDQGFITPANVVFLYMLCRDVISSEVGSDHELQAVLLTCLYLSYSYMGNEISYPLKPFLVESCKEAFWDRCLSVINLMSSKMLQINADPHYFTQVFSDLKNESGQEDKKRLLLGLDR
# Method: as §1
# IGF-1R = molecular target: T30, IGF-1R (Homo sapiens, UniProt P08069); test: KinaseProfiler kinase profiling; format: biochemical; conditions: 10 μM, ATP near Km
# T30 construct: purchased Millipore, Inc. (KinaseProfiler service)
# Method: as §1
# EGFR = molecular target: T31, EGFR (Homo sapiens, UniProt P00533); test: KinaseProfiler kinase profiling; format: biochemical; conditions: 10 μM, ATP near Km
# T31 construct: purchased Millipore, Inc. (KinaseProfiler service)
# Method: as §1
# Ros = molecular target: T32, Ros (Homo sapiens, UniProt P08922); test: KinaseProfiler kinase profiling; format: biochemical; conditions: 10 μM, ATP near Km
# T32 construct: purchased Millipore, Inc. (KinaseProfiler service)
# Method: as §1
structure (smiles),measurement,setting,value
"COCCN1C[C@@H](NC(=O)Nc2c(C)c(-c3cnc(C)nc3)nn2-c2ccccc2)[C@H](c2cccc(F)c2)C1 [Compound 1, 1-((3S,4R)-4-(3-fluorophenyl)-1-(2-methoxyethyl)pyrrolidin-3-yl)-3-(4-methyl-3-(2-methylpyrimidin-5-yl)-1-phenyl-1H-pyrazol-5-yl)urea]",fold more potent against TrkA than p38α,[1],1000 fold
same,estimated inhibition of TrkA,TrkA,higher
same,Avg POC,EphA8,110 POC
same,Avg POC,Pim-2,117.5 POC
same,Avg POC,CDK5/p35,97 POC
same,Avg POC,MST3,103.5 POC
same,Avg POC,IKKbeta,104.5 POC
same,Avg POC,CDK7/cyclinH/MAT1,99 POC
same,Avg POC,Fer,103.5 POC
same,Avg POC,Plk1,99.5 POC
same,Avg POC,TEC Activated,97 POC
same,Avg POC,Ret,111.5 POC
same,Avg POC,BLK,82.5 POC
same,Avg POC,FGFR2,99 POC
same,Avg POC,PDGFRbeta,96 POC
same,Avg POC,PRK2,116 POC
same,Avg POC,Bmx,91.5 POC
same,Avg POC,PAK4,97 POC
same,Avg POC,CAMK1d,130 POC
same,Avg POC,CDK9/cyclinT1,112 POC
same,Avg POC,TAO3,103 POC
same,Avg POC,TSSK1,104 POC
same,Avg POC,ALK4,106.5 POC
same,Avg POC,p70S6K,104 POC
same,Avg POC,WNK3,115.5 POC
same,Avg POC,NEK7,104 POC
same,Avg POC,JNK3,114.5 POC
same,Avg POC,MAPKAP-K5,89.5 POC
same,Avg POC,CDK6/cyclinD3,99.5 POC
same,Avg POC,CDK5/p25,115 POC
same,Avg POC,IGF-1R,80.5 POC
same,Avg POC,EGFR,95.5 POC
same,Avg POC,Ros,112.5 POC

# From US10835533B2, “1 -((3S,4R)-4-(3-fluorophenyl)-1-(2-methoxyethyl)pyrrolidin-3-yl)-3-(4-methyl-3-(2-methylpyrimidin-5-yl)-1-phenyl-1H-pyrazol-5-yl)urea as a TrkA kinase inhibitor” (Array BioPharma Inc., priority 2014, dated 2020)
